Results on 39 compounds are retold here after US20240246937A1 (MERCK SHARP & DOHME LLC, priority 2021, published 2024).

The assay addresses recombinant IL4I1 (Homo sapiens (Human), UniProt Q96RQ9). Put plainly: IL4I1 Enzymatic Assay (Amplex Red/HRP coupled fluorescence detection of H2O2). Type of assay: biochemical. The note with it: 240 min; recombinant IL4I1, four-hour pre-incubation with compound. The procedure, abridged:
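Recombinant human IL4I1 (1 nM final) pre-incubated 4 h with compound at ambient temperature in 50 mM Hepes pH 7.0, 0.005% Tween20. Started with 1 mM each Phe/Tyr/Trp plus Amplex Red/HRP; H2O2-derived resorufin fluorescence read after 120 min; EC50 from ten-point 1:3 titration, four-parameter fit.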

Chain of recombinant IL4I1 (Q96RQ9 22-567): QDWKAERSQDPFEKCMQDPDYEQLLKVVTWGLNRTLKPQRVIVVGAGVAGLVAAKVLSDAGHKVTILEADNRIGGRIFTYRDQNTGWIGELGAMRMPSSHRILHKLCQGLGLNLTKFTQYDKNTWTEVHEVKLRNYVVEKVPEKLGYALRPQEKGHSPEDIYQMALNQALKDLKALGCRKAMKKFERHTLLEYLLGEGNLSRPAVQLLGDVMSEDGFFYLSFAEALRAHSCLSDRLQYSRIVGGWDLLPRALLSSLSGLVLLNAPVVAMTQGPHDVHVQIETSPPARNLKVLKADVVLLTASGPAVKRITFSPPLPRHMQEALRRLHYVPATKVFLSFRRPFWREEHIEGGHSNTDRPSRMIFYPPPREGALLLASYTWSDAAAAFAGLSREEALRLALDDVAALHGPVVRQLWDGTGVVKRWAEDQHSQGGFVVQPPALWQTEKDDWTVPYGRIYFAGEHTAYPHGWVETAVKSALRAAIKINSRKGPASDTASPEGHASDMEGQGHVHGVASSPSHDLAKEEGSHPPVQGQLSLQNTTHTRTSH

What is called EC50 is the concentration that produces a half-maximal response. Take `O=c1c(=O)n(C2CCCC2)ccn1Cc1ncc(-c2ccccc2)cn1` [Example 337, 1-cyclopentyl-4-((5-phenylpyrimidin-2-yl)methyl)-1,4-dihydropyrazine-2,3-dione]: the EC50 came to 15 nM.

For the compound `N#CC1CCC(n2ccn(Cc3nnc(-c4ccccc4)s3)c(=O)c2=O)C1` (stereo not drawn) [Example 338, 3-(2,3-dioxo-4-((5-phenyl-1,3,4-thiadiazol-2-yl)methyl)-3,4-dihydropyrazin-1(2H)-yl)cyclopentane-1-carbonitrile], the EC50 stood at 12 nM. Consider `CCCOc1ccc(CN2CCN(C3CCCC3)C(=O)C2=O)nn1` [Example 339, 1-cyclopentyl-4-((6-propoxypyridazin-3-yl)methyl)piperazine-2,3-dione], for which the EC50 was found to be 42 nM. Turning to `CCOc1ccc(CN2CCN(C3CCCC3)C(=O)C2=O)nn1` [Example 340, 1-cyclopentyl-4-((6-ethoxypyridazin-3-yl)methyl)piperazine-2,3-dione], the EC50 was 70 nM.

`O=C1C(=O)N(C2CCCC2)CCN1Cc1ncc(-c2ccccn2)cn1` [Example 342, 1-cyclopentyl-4-((5-(pyridin-2-yl)pyrimidin-2-yl)methyl)piperazine-2,3-dione]: the EC50 was 69 nM. Then `O=C1C(=O)N(C2CCCC2)CCN1Cc1ncc(-c2cc(F)ccn2)cn1` [Example 343, 1-cyclopentyl-4-((5-(4-fluoropyridin-2-yl)pyrimidin-2-yl)methyl)piperazine-2,3-dione], with 133 nM. Then `CC(C)(C)N1CCN(Cc2ncc(-c3ccccc3)cn2)C(=O)C1=O` [Example 345, 1-(tert-butyl)-4-((5-phenylpyrimidin-2-yl)methyl)piperazine-2,3-dione], with 59 nM.

For the compound `O=C1C(=O)N(C2CCCC2)CCN1Cc1nnc(-c2ccccc2)s1` [Example 346, 1-cyclopentyl-4-((5-phenyl-1,3,4-thiadiazol-2-yl)methyl)piperazine-2,3-dione], the EC50 was 7 nM. On to `CC(c1cnn(-c2ccccc2)c1)N1CCN(C2CCCC2)C(=O)C1=O` (stereo not drawn) [Example 347, 1-cyclopentyl-4-(1-(1-phenyl-1H-pyrazol-4-yl)ethyl)piperazine-2,3-dione], for which the EC50 is 74 nM. `C[C@H](c1nnc(-c2ccccc2)s1)N1CCN(C2CCCC2)C(=O)C1=O` [Example 348, (R)-1-cyclopentyl-4-(1-(5-phenyl-1,3,4-thiadiazol-2-yl)ethyl)piperazine-2,3-dione]: the EC50 turned out to be 18 nM. `C[C@@H](c1nnc(-c2ccccc2)s1)N1CCN(C2CCCC2)C(=O)C1=O` [Example 349, (S)-1-cyclopentyl-4-(1-(5-phenyl-1,3,4-thiadiazol-2-yl)ethyl)piperazine-2,3-dione]: the EC50 amounted to 25 nM. For the compound `O=C1C(=O)N(C2CCCC2)CCN1CCc1nnc(-c2ccccc2)s1` [Example 350, 1-cyclopentyl-4-(2-(5-phenyl-1,3,4-thiadiazol-2-yl)ethyl)piperazine-2,3-dione], the EC50 was determined as 5 nM.

As to `O=C1C(=O)N(C2CCCC2)CCN1Cc1nnc(-c2ccc(F)cc2)s1` [Example 351, 1-cyclopentyl-4-((5-(4-fluorophenyl)-1,3,4-thiadiazol-2-yl)methyl)piperazine-2,3-dione], the EC50 is 8 nM. The result for `CC(Cc1nnc(-c2ccccc2)s1)N1CCN(C2CCCC2)C(=O)C1=O` (stereo not drawn) [Example 352, 1-cyclopentyl-4-(1-(5-phenyl-1,3,4-thiadiazol-2-yl)propan-2-yl)piperazine-2,3-dione] reads 13 nM; that for `CC(CN1CCN(C2CCCC2)C(=O)C1=O)c1nnc(-c2ccccc2)s1` (stereo not drawn) [Example 353, 1-cyclopentyl-4-(2-(5-phenyl-1,3,4-thiadiazol-2-yl)propyl)piperazine-2,3-dione], 11 nM. Then `O=C1C(=O)N(C2CCCC2)CCN1Cc1cc2ccccc2[nH]c1=O` [Example 354, 1-cyclopentyl-4-((2-oxo-1,2-dihydroquinolin-3-yl)methyl)piperazine-2,3-dione], with 20 nM. Then `C[C@H](c1nnc(-c2ccccc2)s1)N1CCN(C2CCC2)C(=O)C1=O` [Example 355, (R)-1-cyclobutyl-4-(1-(5-phenyl-1,3,4-thiadiazol-2-yl)ethyl)piperazine-2,3-dione], with 22 nM; and `C[C@@H](c1nnc(-c2ccccc2)s1)N1CCN(C2CCC2)C(=O)C1=O` [Example 356, (S)-1-cyclobutyl-4-(1-(5-phenyl-1,3,4-thiadiazol-2-yl)ethyl)piperazine-2,3-dione], with 28 nM; and `CC1CN(C2CCC2)C(=O)C(=O)N1Cc1nnc(-c2ccccc2)s1` (stereo not drawn) [Example 357, 1-cyclobutyl-5-methyl-4-((5-phenyl-1,3,4-thiadiazol-2-yl)methyl)piperazine-2,3-dione], with 32 nM.

Turning to `O=C1C(=O)N(C2CCCC2)CCN1Cc1cc(-c2ccccc2)no1` [Example 358A, 1-cyclopentyl-4-((3-phenylisoxazol-5-yl)methyl)piperazine-2,3-dione], the EC50 was found to be 2 nM.

`O=c1c(=O)n(C2CCCC2)ccn1Cc1cc(-c2ccccc2)no1` [Example 358B, 1-cyclopentyl-4-((3-phenylisoxazol-5-yl)methyl)-1,4-dihydropyrazine-2,3-dione]: the EC50 was determined as 1 nM.

For the compound `O=C1C(=O)N(C23CC(C2)C3)CCN1Cc1ccc(-n2nccn2)cn1` [Example 359, 1-((5-(2H-1,2,3-triazol-2-yl)pyridin-2-yl)methyl)-4-(bicyclo[1.1.1]pentan-1-yl)piperazine-2,3-dione], the EC50 is 22 nM.

In the case of `O=c1c(=O)n(C23CC(C2)C3)ccn1Cc1ccc(-n2nccn2)cn1` [Example 360, 1-((5-(2H-1,2,3-triazol-2-yl)pyridin-2-yl)methyl)-4-(bicyclo[1.1.1]pentan-1-yl)-1,4-dihydropyrazine-2,3-dione], the EC50 stood at 16 nM. The result for `O=C1C(=O)N(C2CCCC2)CCN1Cc1ncc(-c2nccs2)cn1` [Example 361, 1-cyclopentyl-4-((5-(thiazol-2-yl)pyrimidin-2-yl)methyl)piperazine-2,3-dione] reads 96 nM; that for `O=C1C(=O)N(C2CCCC2)CCN1Cc1ccc(-c2nccs2)nn1` [Example 362, 1-cyclopentyl-4-((6-(thiazol-2-yl)pyridazin-3-yl)methyl)piperazine-2,3-dione], 22 nM; that for `O=C1C(=O)N(C2CCCC2)CCN1Cc1nnc(-c2nccs2)s1` [Example 363, 1-cyclopentyl-4-((5-(thiazol-2-yl)-1,3,4-thiadiazol-2-yl)methyl)piperazine-2,3-dione], 25 nM. The result for `O=C1C(=O)N(C2CCCC2)CCN1Cc1ccc(-c2nccs2)nc1` [Example 364, 1-cyclopentyl-4-((6-(thiazol-2-yl)pyridin-3-yl)methyl)piperazine-2,3-dione] reads 17 nM. The result for `O=C1C(=O)N(C2CCC2)CCN1Cc1ccc(-c2nccs2)nn1` [Example 365, 1-cyclobutyl-4-((6-(thiazol-2-yl)pyridazin-3-yl)methyl)piperazine-2,3-dione] reads 17 nM. As for `O=c1c(=O)n(C23CC(C2)C3)ccn1Cc1ccc(-c2nccs2)nn1` [Example 366, 1-(bicyclo[1.1.1]pentan-1-yl)-4-((6-(thiazol-2-yl)pyridazin-3-yl)methyl)-1,4-dihydropyrazine-2,3-dione], the EC50 stood at 9 nM. On to `O=c1c(=O)n(C2CCC2)ccn1Cc1ccc(-c2nccs2)nn1` [Example 367, 1-cyclobutyl-4-((6-(thiazol-2-yl)pyridazin-3-yl)methyl)-1,4-dihydropyrazine-2,3-dione], for which the EC50 turned out to be 9 nM. With `O=C1C(=O)N(C2CCCC2)CCN1Cc1ccc(-c2ccccn2)nn1` [Example 368, 1-cyclopentyl-4-((6-(pyridin-2-yl)pyridazin-3-yl)methyl)piperazine-2,3-dione], the EC50 is 28 nM. Then `O=C1C(=O)N(C2CCC2)CCN1Cc1nnc(-c2ccccn2)s1` [Example 369, 1-cyclobutyl-4-((5-(pyridin-2-yl)-1,3,4-thiadiazol-2-yl)methyl)piperazine-2,3-dione], with 32 nM; and `O=c1c(=O)n(C2CCC2)ccn1Cc1nnc(-c2ccccn2)s1` [Example 370, 1-cyclobutyl-4-((5-(pyridin-2-yl)-1,3,4-thiadiazol-2-yl)methyl)-1,4-dihydropyrazine-2,3-dione], with 20 nM; and `O=c1c(=O)n([C@H]2C[C@H]3C[C@H]3C2)ccn1Cc1ncc(-c2nccs2)cc1F` [Example 371, 1-((cis)-bicyclo[3.1.0]hexan-3-yl)-4-((3-fluoro-5-(thiazol-2-yl)pyridin-2-yl)methyl)-1,4-dihydropyrazine-2,3-dione], with 42 nM. Turning to `O=c1c(=O)n([C@H]2C[C@@H](c3ccccc3)C2)ccn1Cc1nnc(-c2nccs2)s1` [Example 372, 1-((cis)-3-phenylcyclobutyl)-4-((5-(thiazol-2-yl)-1,3,4-thiadiazol-2-yl)methyl)-1,4-dihydropyrazine-2,3-dione], the EC50 was determined as 23 nM. Take `O=c1c(=O)n(C2CCC2)ccn1Cc1cc(-c2ccccn2)on1` [Example 373, 1-cyclobutyl-4-((5-(pyridin-2-yl)isoxazol-3-yl)methyl)-1,4-dihydropyrazine-2,3-dione]: the EC50 came to 8 nM.

For `O=C1C(=O)N([C@H]2C[C@H]3C[C@H]3C2)CCN1Cc1ccc(-c2nccs2)nn1` [Example 374, 1-((cis)-bicyclo[3.1.0]hexan-3-yl)-4-((6-(thiazol-2-yl)pyridazin-3-yl)methyl)piperazine-2,3-dione], the EC50 stood at 8 nM. Then `O=c1c(=O)n([C@H]2C[C@H]3C[C@H]3C2)ccn1Cc1cc(-c2ccccn2)on1` [Example 375, 1-((cis)-bicyclo[3.1.0]hexan-3-yl)-4-((5-(pyridin-2-yl)isoxazol-3-yl)methyl)-1,4-dihydropyrazine-2,3-dione], with 6 nM; and `O=C1C(=O)N(C2CCC2)CCN1Cc1ncc(-c2ccccn2)s1` [Example 376, 1-cyclobutyl-4-((5-(pyridin-2-yl)thiazol-2-yl)methyl)piperazine-2,3-dione], with 14 nM.
